The results in this text go back to ChEMBL document CHEMBL1201862, “PubChem BioAssay data set” (2004).

Each structure is given as a SMILES string.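 96-well plates; 48 h exposure; 5 concentrations. Endpoints by linear interpolation between flanking doses. Not reached: highest tested concentration assigned. GI50: concentration for 50% inhibition of growth.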 The source made the active and inactive calls. No stated cut-off is given here; in the data, active = GI50 up to about 1.1 µM and inactive = higher.

Test in all cases: growth of human tumour cells (NCI), 48 h
Experiment [1] concerns ACHN.
Experiment [2] has as its system HL-60.
The test system of experiment [3] is IGROV-1.
Experiment [4] concerns LOX IMVI.
Experiment [5] has as its system RPMI-8226.
For experiment [6], the system named is RXF 393.
For experiment [7], the system named is SF-268.
The test system of experiment [8] is SK-MEL-28.
The subject of experiment [9] is SNB-19.
The test system of experiment [10] is SW-620.
Experiment [11] deals with U-251.
Experiment [12] deals with UACC-62.
The subject of experiment [13] is UO-31.
The test system of experiment [14] is NCI-H226.
Experiment [15] concerns OVCAR-5.
Experiment [16] deals with SK-MEL-2.

As to `Cc1nc2ccccc2c(=O)n1/N=C(\N=N\c1cc(Cl)ccc1Cl)c1ccc(N(C)C)cc1`, the GI50 in experiment [1] is 71.8 µM (inactive); in experiment [2], 22.9 µM (inactive); in experiment [3] it was 49.9 µM (inactive); in [4] it was 63.4 µM (inactive); in experiment [5], 26.2 µM (inactive); in [6] it was 27.2 µM (inactive). The GI50 is 41.5 µM (inactive) in experiment [7]; > 100 µM (inactive) in [8]; 33.3 µM (inactive) in experiment [9]; > 100 µM (inactive) in experiment [10]; 38.1 µM (inactive) in experiment [11]; 34.5 µM (inactive) in experiment [12]. For the same molecule, the GI50 in experiment [13] is 22.9 µM (inactive).

Take `Oc1nc(-c2ccccc2)cc(-c2ccccc2O)n1`: the GI50 in [1] is 67.6 µM (inactive); in [2], 79.1 µM (inactive); in experiment [3] it was > 100 µM (inactive); in experiment [4], 51.5 µM (inactive); in experiment [14], > 100 µM (inactive); in [15], 62.5 µM (inactive). Further, the GI50 in [5] is 83.9 µM (inactive); in experiment [6], 86.5 µM (inactive); in [7] it was > 100 µM (inactive); in [8], > 100 µM (inactive); in experiment [9] it was 58.2 µM (inactive); in experiment [10], > 100 µM (inactive). Besides, the GI50 in [11] is 42.2 µM (inactive); in experiment [12], 77.3 µM (inactive); in [13], 41 µM (inactive).

In the case of `CCN(CC)C(c1ccc(N(C)C)cc1)C(c1ccc(N(C)C)cc1)N(CC)CC` (centres undefined), the GI50 was 47 µM (inactive) in experiment [1]; 14.8 µM (inactive) in experiment [2]; 47.6 µM (inactive) in experiment [3]; 27.3 µM (inactive) in experiment [14]; > 72.9 µM (inactive) in [15]; 21.9 µM (inactive) in experiment [5]. In addition, the GI50 in experiment [6] is 25.9 µM (inactive); in [7] it was 65 µM (inactive); in experiment [8] it was 26.4 µM (inactive); in experiment [16], 22.8 µM (inactive); in experiment [9], 62.8 µM (inactive); in [10], 21.4 µM (inactive). Moreover, the GI50 was > 72.9 µM (inactive) in [11] and 20.1 µM (inactive) in experiment [12].

As for `CC(=O)N(/N=C\c1ccc([N+](=O)[O-])cc1)c1ccccc1`, the GI50 in [1], in [3], in experiment [4], in experiment [14], in [15] and in experiment [5] was > 100 µM (inactive) in each case. Further, the GI50 in experiment [7], in [8], in [16], in experiment [9], in [10] and in [11] was > 100 µM (inactive) throughout. The GI50 was > 100 µM (inactive) in [12] and 35.9 µM (inactive) in [13].

As for `Cc1c[nH]c2c1C13CC1CN(C(=O)c1cc4cc(NC(=O)c5cc6ccccc6o5)ccc4[nH]1)C3=CC2=O` (centres undefined), the GI50 in experiment [1], in experiment [4], in experiment [14], in experiment [15], in [6] and in experiment [7] was < 0.001 µM (active) throughout. In addition, the GI50 in experiment [8], in experiment [16], in experiment [9], in experiment [10], in experiment [11] and in experiment [12] was < 0.001 µM (active) in each case.

Turning to `Cc1c(Cl)cccc1NC(=O)C(=O)c1c(O)c2ccc(O)cc2oc1=O`, the GI50 in [1], in experiment [2], in experiment [3], in [4], in [14] and in experiment [15] was > 100 µM (inactive) each time. Moreover, the GI50 in experiment [6], in [7], in experiment [8], in [16], in experiment [9] and in experiment [10] was > 100 µM (inactive) throughout. The GI50 in experiment [11], in [12] and in experiment [13] was > 100 µM (inactive) each time.

For `CCCN(CCC)c1c([N+](=O)[O-])cc(S(N)(=O)=O)cc1[N+](=O)[O-]` [ORYZALIN], the GI50 was 17.9 µM (inactive) in [1]; 7.29 µM (inactive) in experiment [3]; 17.5 µM (inactive) in experiment [4]; 23.7 µM (inactive) in experiment [14]; 22.4 µM (inactive) in [15]; 26.7 µM (inactive) in experiment [5]. In addition, the GI50 is 18.3 µM (inactive) in [7]; 20.7 µM (inactive) in [8]; 16.4 µM (inactive) in experiment [16]; 19.7 µM (inactive) in experiment [9]; 20.7 µM (inactive) in experiment [10]; 12 µM (inactive) in [11]. Besides, the GI50 in experiment [12] is 18.3 µM (inactive); in [13] it was 18.6 µM (inactive).

As for `C=CCN1/C(=C2\SC(=S)N(c3ccc(C)cc3)C2=O)Sc2c1ncn(C)c2=O`, the GI50 is > 100 µM (inactive) in experiment [1]; 83.4 µM (inactive) in [2]; > 100 µM (inactive) in experiment [3]; > 100 µM (inactive) in experiment [4]; 78.5 µM (inactive) in [14]; > 100 µM (inactive) in experiment [15]. The GI50 in experiment [5], in experiment [7], in [16], in experiment [9], in experiment [10] and in [11] was > 100 µM (inactive) throughout. The GI50 in experiment [12] and in experiment [13] was > 100 µM (inactive) throughout.

As to `O=C1C(c2ccccc2)=C(c2ccccc2)C(c2ccc(Sc3ccc(C4=C(c5ccccc5)C(=O)C(c5ccccc5)=C4c4ccccc4)cc3)cc2)=C1c1ccccc1`, the GI50 in experiment [2], in experiment [3], in [4], in experiment [14], in experiment [15] and in experiment [5] was > 100 µM (inactive) each time. Also, the GI50 in experiment [6] is 64.9 µM (inactive); in [7] it was > 100 µM (inactive); in experiment [16] it was > 100 µM (inactive); in [9] it was > 100 µM (inactive); in [10] it was > 100 µM (inactive); in [11], 48.6 µM (inactive). Moreover, the GI50 in [12] and in experiment [13] was > 100 µM (inactive) each time.

Take `C(CCC[Te][Te]CCCCCCOC1CCCCO1)CCOC1CCCCO1` (centres undefined): the GI50 in experiment [1] is 10.6 µM (inactive); in experiment [2] it was 8.69 µM (inactive); in [3] it was 16.5 µM (inactive); in experiment [4], 13.6 µM (inactive); in experiment [15], 14 µM (inactive); in experiment [7] it was 16.6 µM (inactive). Moreover, the GI50 was 14.1 µM (inactive) in [8]; 13.3 µM (inactive) in [16]; 14.4 µM (inactive) in experiment [9]; 18.2 µM (inactive) in [10]; 11.8 µM (inactive) in experiment [11]; 10.6 µM (inactive) in experiment [12]. Besides, in experiment [13], the GI50 is 19.8 µM (inactive).

As to `C/C(=N/N(C=O)C[n+]1ccccc1)C(CN(CC(C)C)CC(C)C)C(=O)Nc1ccc(C)cc1C` (centres undefined), the GI50 in [1] was 94.2 µM (inactive); in experiment [2], 73.1 µM (inactive); in experiment [3] it was > 100 µM (inactive); in [15], 63.1 µM (inactive); in [5], > 100 µM (inactive); in experiment [6] it was 42.9 µM (inactive). The GI50 in experiment [7] is 43 µM (inactive); in [8], > 100 µM (inactive); in experiment [16], > 100 µM (inactive); in experiment [9] it was 67.9 µM (inactive); in experiment [10] it was > 100 µM (inactive); in [12], 79.6 µM (inactive). Moreover, the GI50 in experiment [13] was 25.8 µM (inactive).

`CCN(CC)CCOc1ccc(CCc2cc(OC)c(OC)c(OC)c2)cc1`: the GI50 in experiment [1] was 50.4 µM (inactive); in [2] it was 18.9 µM (inactive); in experiment [3], > 100 µM (inactive); in experiment [4], 13.9 µM (inactive); in [14], 45 µM (inactive); in experiment [15], 22.3 µM (inactive). Besides, the GI50 in [5] was 16.8 µM (inactive); in experiment [6], 34.9 µM (inactive); in experiment [7], > 100 µM (inactive); in experiment [8] it was 78 µM (inactive); in [9], > 100 µM (inactive); in [10], 18.4 µM (inactive). Besides, the GI50 was 45.3 µM (inactive) in [11], 26.1 µM (inactive) in [12] and 28.2 µM (inactive) in [13].

`COc1ccc(/C(=C/n2ccnc2)C(=O)c2ccc(OC)c(OC)c2)cc1`: the GI50 in [1], in experiment [2], in experiment [4], in experiment [14], in [15] and in experiment [5] was > 100 µM (inactive) in each case. Moreover, the GI50 in [7], in experiment [8], in [16], in experiment [9], in experiment [10] and in [11] was > 100 µM (inactive) in each case. The results for the GI50 in experiment [12] and in experiment [13] were 39.3 µM (inactive) and > 100 µM (inactive), respectively.

As for `COc1ccccc1/C=C(\NC(=O)c1ccccc1)c1nc2ccccc2[nH]1`, the GI50 is 36.6 µM (inactive) in experiment [1]; 32.8 µM (inactive) in [3]; 52.4 µM (inactive) in experiment [4]; > 100 µM (inactive) in experiment [15]; 17.6 µM (inactive) in experiment [5]; 76.6 µM (inactive) in experiment [6]. Also, the GI50 in experiment [7] was 37.3 µM (inactive); in [8], 36.9 µM (inactive); in [16], 27.4 µM (inactive); in [9], 34 µM (inactive); in [10], 47 µM (inactive); in [11], 47.2 µM (inactive). Further, the results for the GI50 in experiment [12] and in [13] were 45 µM (inactive) and 63.8 µM (inactive), respectively.
